From patent US8067456B2 (AEterna Zentaris GmbH, priority 2004, dated 2011)
In brackets after ≈: the same amount, converted by molar mass. Like-named read-outs stand apart in the source and are kept apart here. Blank lines part the entries; values can stand above or below the compound they belong to.

Legend:
rat LHRH receptor = target: T1, rat LHRH receptor (Rattus norvegicus, UniProt P30969); test: LHRH receptor-ligand binding assay (transfected LTK cells); details: LTK cells transfected with rat LHRH receptor, 125I-triptorelin tracer, 37° C., 60 min; read-out: Binding to r-LHRHR EC50
T1 construct: expressed in transfected cells; host or cells: LTK cells (mouse fibroblasts, ATCC CCL-1.3)
T1 sequence (P30969 1-327): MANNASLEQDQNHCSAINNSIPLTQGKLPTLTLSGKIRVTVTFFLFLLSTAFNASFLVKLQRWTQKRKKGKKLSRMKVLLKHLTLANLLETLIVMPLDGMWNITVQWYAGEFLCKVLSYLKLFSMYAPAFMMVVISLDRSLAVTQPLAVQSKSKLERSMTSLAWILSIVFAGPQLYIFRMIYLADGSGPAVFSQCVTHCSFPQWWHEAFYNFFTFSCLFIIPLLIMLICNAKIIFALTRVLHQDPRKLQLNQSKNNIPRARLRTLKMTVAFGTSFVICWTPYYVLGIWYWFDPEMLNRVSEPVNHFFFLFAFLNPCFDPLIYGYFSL
Protocol: ^125I-Triptorelin [^125I-(D)-Trp6-GnRH] was purchased from Biotrend (Cologne, Germany).
The specific activity was in each case 2.13 Ci/mmol.
LTK cells (mouse fibroblasts: ATCC No. CCL-1.3) which have been transfected with the rat LHRH receptor are cultivated in DMEM medium (Invitrogen Life Technologies, Germany) with penicillin (100 I.U./ml), streptomycin (0.1 mg/ml) and glutamine (0.01 mol/l) and 10% fetal calf serum (FCS; Invitrogen Life Technologies, Germany) on plastic tissue culture plates (Nunc, Germany, 245×245-20 mm).
80% confluent cell culture plates are washed twice with 50 ml of phosphate-buffered saline (PBS) and then detached with 0.01 M EDTA solution. The cells are pelleted by centrifugation at 200·g for 5 min in a laboratory centrifuge (Kendro, Germany). The cell pellet is resuspended in 3 ml of binding medium (DMEM; 10 mM Hepes; 0.5% BSA; 0.1% […]; 1 g/l bacitracin (add fresh, stock 100×); 0.1 g/l SBTI (add fresh, stock 1000×) and the cell count is determined by Trypan blue staining in a Neubauer counting chamber. The cell suspension is adjusted with binding medium to a concentration of 5×10^5 cells/0.05 ml.
Binding studies for competition plots are carried out as duplicates. The test substances are employed as 10 mM DMSO solutions. They are diluted to 4 times the final concentration employed with binding medium. 25 μl of the substance dilution are mixed with 25 μl of tracer solution (^125I-triptorelin or ^125I-cetrorelix). The tracer concentration is adjusted to approx. 50 000 cpm (measured in a Cobra II, γ counter. PE Liefe Science, Germany) in the final reaction volume of 100 μl.
200 μl of silicone/liquid paraffin mixture (84%:16%) are introduced into 650 μl conical tubes (Roth. Germany). 50 μl of the cell suspension are pipetted thereon, followed by 50 μl of the test substance/tracer mixture. The tubes are capped and incubated with vertical rotation in an incubator at 37° C. for 60 min. After incubation, the samples are centrifuged in a centrifuge (Kendro, Germany) at 900 rpm and subsequently shock-frozen in liquid N2. The tip with the cell pellet is cut off and transferred into prepared counting vials (Roth, Germany). The remainder of the conical tube with the remaining supernatant is likewise transferred into a counting vial. The measurement takes place in a γ counter for 1 min/sample.
Evaluation of the samples takes place after calculation of the specific binding compared with untreated cells, after subtraction of the nonspecific binding (excess of unlabeled ligand, 1 μM) by means of GraphPad Prism or alternatively by means of OMMM software.

[1] = tested on: LHRH-stimulated LH secretion from rat pituitary cells; test: Inhibition of LHRH-induced LH secretion from rat pituitary cells in vitro; type: cell-based
Protocol: The LH concentration in cell culture supernatants was measured using the rat luteinizing hormone (rLH) enzyme immunoassay (EIA) system ELISA (RPN 2562) from Amersham Pharmacia Biotech. All other chemicals used were from commercial sources in the highest purity available.
Juvenile male Wistar rats (Harlan Winkelmann, Germany) were sacrificed by decapitation, and the pituitaries were removed and taken up in Hanks' buffer (HBSS) with 0.3% BSA and 10 mM HEPES (pH 7.4). Pituitaries from 20 rats were required to carry out one experiment. The cells of the anterior lobe of the pituitary were separated from the remaining tissue by incubation in Hanks' buffer with 10 mM HEPES (pH 7.4), 0.3% BSA, 1 mg/ml hyaluronidase (type VIII), 1 mg/ml soybean trypsin inhibitor, 10 μg/ml DNAsel and 1 mg/ml papain at 37° C. for 30 minutes A sterile Pasteur pipette was used to disperse the cells, and they were subsequently pelleted by centrifugation. The cells were seeded in a density of 2.5×10^5 cells/well of a collagen-coated 48-well plate (Becton Dickinson) in DMEM medium (Invitrogen Life Technologies, Germany) with 10% fetal calf serum (FCS; Invitrogen Life Technologies, Germany), 10 mill nonessential amino acids and 10 mill Pen/Strep (penicillin/streptomycin).
The medium was changed after incubation at 37° C., 5% CO2 and 95% humidity for 48 h. The medium was replaced by LHRH-containing (10 nM) medium or medium with LHRH (10 nM) and test substance in the concentration indicated (table). After a further incubation for 3 hours, the cell supernatant was harvested and frozen at −20° C. The LH content was determined by means of ELISA in triplicate determination in accordance with the manufacturer's (Amersham Pharmacia Biotech) instructions.
In the following table, “% Inhibition” describes the quotient of LHRH-stimulated LH secretion with (“LH (ng/ml)” and without the addition of the test substance. The values originate from different, independent experiments.

[2] = Saturation solubility in water; type: physicochemical; details: maximum of 1% DMSO added, HPLC UV; for solubility: water, thermodynamic from solid
Protocol: The saturation solubility in water was determined in accordance with the following description: to initiate dissolving of the substances and to improve the wetting of the samples, a maximum of 1% DMSO was added. The content was checked by using an HPLC UV method.

LHRH receptor = target: T2, LHRH receptor (Rattus norvegicus, UniProt P30969); test: LHRH receptor-ligand binding assay (membrane preparations from rat pituitary cells); details: competition with 0.05 nM [125I][D-Trp6]-LHRH, 90 min, 4° C., rat pituitary membranes
T2 construct: rat pituitary cells which naturally strongly express the LHRH receptor; from tissue; host or cells: rat pituitary cells (membrane preparation)
T2 sequence (P30969 1-327): T1 sequence (P30969 1-327)
Protocol: Heterologous competition experiments were carried out using membrane preparations from rat pituitary cells which naturally strongly express the LHRH receptor. The ligand used in this case was [^125I][D-Trp^6]-LHRH in a concentration of 0.05 nM. Unlabeled [D-Trp^6]-LHRH was used in a concentration of 1 μM, or the test substance was used in the desired concentration, for competition. After an incubation time of 90 minutes at 4° C., the bound ligand was measured by scintillation (Halmos et al., Proc. Natl. Acad. Sci. USA, 1996, 93, 2398).
The result obtained was the percentage proportion of bound ligand in the presence of the competitor related to the specifically bound proportion of the control (see result for selected compounds in Table 3). EC50 values were calculated by nonlinear regression analysis of the competition plots.

[3] = Metabolic stability in rat liver microsomes; type: in vitro ADME; details: 1 μM, 37° C., NADPH
Protocol: (§1) The metabolic stability in relation to liver microsomes (species human, rat) was determined in accordance with the following description: the substances were incubated at a test concentration of 1 […] An HPLC MS/MS method was subsequently used to quantify the unmetabolized amount of starting compound relative to 100%.

[4] = Metabolic stability in human liver microsomes; type: in vitro ADME; details: 1 μM, 37° C., NADPH
Protocol: as §1

[5] = test substance 3.3 × 10^−8 M, LHRH 10 nM, 3 hours

EC50 (LHRH receptor): 8 nM
Compound: CCC(C)[C@H](NC(=O)[C@@]1(NC(=O)[C@@H](NC(=O)OCc2ccc(F)cc2)C(C)CC)CCc2[nH]c3c(Cl)cc(Cl)cc3c2C1)C(N)=O (stereo partly drawn) [Compound 48, 4-fluorobenzyl {(S)-1-[(R)-3-((S)-1-carbamoyl-2-methylbutylcarbamoyl)-6,8-dichloro-2,3,4,9-tetrahydro-1H-carbazol-3-ylcarbamoyl]-2-methylbutyl}carbamate]

EC50 (LHRH receptor): 6.9 nM
Compound: CCC(C)[C@H](NCCc1ccc(F)cc1)C(=O)N[C@]1(C(=O)N[C@H](C(N)=S)C(C)CC)CCc2[nH]c3c(Cl)cc(F)cc3c2C1 (stereo partly drawn) [Compound 67, (R)-8-chloro-6-fluoro-3-{(S)-2-[2-(4-fluorophenyl)ethylamino]-3-methylpentanoylamino}-2,3,4,9-tetrahydro-1H-carbazole-3-carboxylic acid ((S)-2-methyl-1-thiocarbamoylbutyl)amide]

EC50 (LHRH receptor): 0.59 nM
Compound: CCC(C)[C@H](NC(=O)[C@@]1(NC(=O)[C@@H](NC(=O)Cc2ccccc2F)C(C)CC)CCc2[nH]c3c(C(F)(F)F)cccc3c2C1)C(N)=O (stereo partly drawn) [Compound 75, (R)-3-{(S)-2-[2-(2-fluorophenyl)acetylamino]-3-methylpentanoylamino}-8-trifluoromethyl-2,3,4,9-tetrahydro-1H-carbazole-3-carboxylic acid ((S)-1-carbamoyl-2-methylbutyl)amide]

recovery at 1 μM [3]: 5%
recovery at 1 μM [4]: 0%
Compound: CCC(C)[C@H](NC(=O)[C@@]1(NC(=O)[C@@H](NC(=O)OCc2ccccc2)C(C)CC)CCc2[nH]c3c(OC)cccc3c2C1)C(N)=O (stereo partly drawn) [Example 294 from WO 03/051837 A2, Benzyl {(S)-1-[(R)-3-((S)-1-carbamoyl-2-methylbutylcarbamoyl)-8-methoxy-2,3,4,9-tetrahydro-1H-carbazol-3-ylcarbamoyl]-2-methylbutyl]carbamate, reference compound]

Saturation solubility in water [2]: 0.38 µg/mL
Compound: CCC(C)C(NC(=O)OCc1ccccc1)C(=O)NC1(C(=O)NC(C(N)=O)C2CCCCC2)CCc2[nH]c3c(Cl)cc(Cl)cc3c2C1 (centres unmarked) [Example 300 from WO 03/051837 A2, reference compound]

More lines, now with the values behind:

Compound: CCC(C)[C@H](NC(=O)[C@@]1(NC(=O)[C@@H](NC(=O)Cc2ccccc2F)C(C)CC)CCc2[nH]c3c(Cl)cc(Cl)cc3c2C1)C(N)=O (stereo partly drawn) [Compound 4, (R)-6,8-dichloro-3-{(S)-2-[2-(2-fluorophenyl)acetylamino]-3-methylpentanoylamino}-2,3,4,9-tetrahydro-1H-carbazole-3-carboxylic acid ((S)-1-carbamoyl-2-methylbutyl)amide]
EC50 (rat LHRH receptor): 4.8 nM
inhibition at 0.033 µM ([1]; Rattus norvegicus, 3 h): 67%
LH (ng/ml) ± SD [1, 5]: 79.3 ± 5.7 ng/mL

Compound: CC[C@H](C)[C@H](NC(=O)[C@@]1(NC(=O)[C@H](Cc2ccc(OP(=O)(O)O)cc2)NC(=O)OCc2ccccc2)CCc2[nH]c3c(Cl)cc(Cl)cc3c2C1)C(N)=O [Compound 9]
solubility [2]: 151 µg/mL (≈ 191 µM)

Compound: CCC(C)[C@H](NC(=O)[C@@]1(NC(=O)[C@H](CCc2ccc(O)cc2)NC(=O)OCc2ccccc2)CCc2[nH]c3c(Cl)cc(Cl)cc3c2C1)C(N)=S (stereo partly drawn) [Compound 10, benzyl[(S)-1-[(R)-6,8-dichloro-3-((S)-2-methyl-1-thiocarbamoylbutylcarbamoyl)-2,3,4,9-tetrahydro-1H-carbazol-3-ylcarbamoyl]-3-(4-hydroxyphenyl)propyl]carbamate]
EC50 (rat LHRH receptor): 7.5 nM
inhibition at 0.033 µM ([1]; Rattus norvegicus, test substance 3.3 × 10^−8 M, LHRH 10 nM, 3 hours, read-out: % Inhibition): 39%
inhibition at 0.0033 µM ([1]; Rattus norvegicus, test substance 3.3 × 10^−9 M, LHRH 10 nM, 3 hours): 0%
LH (ng/ml) ± SD [1, 5]: 118.7 ± 11.6 ng/mL
LH (ng/ml) ± SD ([1]; test substance 3.3 × 10^−9 M, LHRH 10 nM, 3 hours): 198.8 ± 4.2 ng/mL

Compound: CCC(C)[C@H](NC(=O)Cc1ccc(F)cc1F)C(=O)N[C@]1(C(=O)N[C@H](C(N)=S)C(C)CC)CCc2[nH]c3c(Cl)cc(F)cc3c2C1 (stereo partly drawn) [Compound 66, (R)-8-chloro-3-{(S)-2-[2-(2,4-difluorophenyl)acetylamino]-3-methylpentanoylamino}-6-fluoro-2,3,4,9-tetrahydro-1H-carbazole-3-carboxylic acid ((S)-2-methyl-1-thiocarbamoylbutyl)amide]
EC50 (LHRH receptor): 0.72 nM

Compound: CCC(C)C(NC(=O)C1(NC(=O)C(CCc2ccc(O)cc2)NC(=O)OCc2ccccc2)CCc2[nH]c3c(Cl)cc(Cl)cc3c2C1)C(N)=O (centres unmarked) [Example 303 from WO 03/051837 A2, Benzyl [1-[3-(1-carbamoyl-2-methylbutylcarbamoyl)-6,8-dichloro-2,3,4,9-tetrahydro-1H-carbazol-3-ylcarbamoyl]-3-(4-hydroxyphenyl)propyl]carbamate, reference compound]
solubility [2]: 0.35 µg/mL (≈ 0.484 µM)

Compound: benzyl[(S)-1-[(R)-3-((S)-carbamoyl-2-methylbutylcarbamoyl)-6,8-dichloro-2,3,4,9-tetrahydro-1H-carbazol-3-ylcarbamoyl]-3-(4-phosphonooxyphenyl)propyl]-carbamate [Compound 11]
EC50 (rat LHRH receptor): 17.2 nM
Saturation solubility in water [2]: 39.9 µg/mL
Metabolic stability (human) [1 h, % recovery] [4]: 77%
